Reference: US11786503B2, “Pharmaceutical compositions and methods for countering chemotherapy induced cardiotoxicity” (Auransa Inc., priority 2016, dated 2023)
Like-named read-outs stand apart in the source and are kept apart here.

What was measured:
TOPOIIα = molecular target: T1, TOPOIIα (Homo sapiens, UniProt P11388); assay: kDNA decatenation assay, TOPOIIα; type: biochemical; details: for TOPOIIα inhibition, in words: decatenation assay;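 for all read-outs here: kDNA incubated with one unit of TOPOIIα at 37 °C for 30 min, decatenated product resolved on 1% agarose gel, inhibition from relative band intensity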
T1 construct: purchased Inspiralis
T1 sequence (P11388 whole entry): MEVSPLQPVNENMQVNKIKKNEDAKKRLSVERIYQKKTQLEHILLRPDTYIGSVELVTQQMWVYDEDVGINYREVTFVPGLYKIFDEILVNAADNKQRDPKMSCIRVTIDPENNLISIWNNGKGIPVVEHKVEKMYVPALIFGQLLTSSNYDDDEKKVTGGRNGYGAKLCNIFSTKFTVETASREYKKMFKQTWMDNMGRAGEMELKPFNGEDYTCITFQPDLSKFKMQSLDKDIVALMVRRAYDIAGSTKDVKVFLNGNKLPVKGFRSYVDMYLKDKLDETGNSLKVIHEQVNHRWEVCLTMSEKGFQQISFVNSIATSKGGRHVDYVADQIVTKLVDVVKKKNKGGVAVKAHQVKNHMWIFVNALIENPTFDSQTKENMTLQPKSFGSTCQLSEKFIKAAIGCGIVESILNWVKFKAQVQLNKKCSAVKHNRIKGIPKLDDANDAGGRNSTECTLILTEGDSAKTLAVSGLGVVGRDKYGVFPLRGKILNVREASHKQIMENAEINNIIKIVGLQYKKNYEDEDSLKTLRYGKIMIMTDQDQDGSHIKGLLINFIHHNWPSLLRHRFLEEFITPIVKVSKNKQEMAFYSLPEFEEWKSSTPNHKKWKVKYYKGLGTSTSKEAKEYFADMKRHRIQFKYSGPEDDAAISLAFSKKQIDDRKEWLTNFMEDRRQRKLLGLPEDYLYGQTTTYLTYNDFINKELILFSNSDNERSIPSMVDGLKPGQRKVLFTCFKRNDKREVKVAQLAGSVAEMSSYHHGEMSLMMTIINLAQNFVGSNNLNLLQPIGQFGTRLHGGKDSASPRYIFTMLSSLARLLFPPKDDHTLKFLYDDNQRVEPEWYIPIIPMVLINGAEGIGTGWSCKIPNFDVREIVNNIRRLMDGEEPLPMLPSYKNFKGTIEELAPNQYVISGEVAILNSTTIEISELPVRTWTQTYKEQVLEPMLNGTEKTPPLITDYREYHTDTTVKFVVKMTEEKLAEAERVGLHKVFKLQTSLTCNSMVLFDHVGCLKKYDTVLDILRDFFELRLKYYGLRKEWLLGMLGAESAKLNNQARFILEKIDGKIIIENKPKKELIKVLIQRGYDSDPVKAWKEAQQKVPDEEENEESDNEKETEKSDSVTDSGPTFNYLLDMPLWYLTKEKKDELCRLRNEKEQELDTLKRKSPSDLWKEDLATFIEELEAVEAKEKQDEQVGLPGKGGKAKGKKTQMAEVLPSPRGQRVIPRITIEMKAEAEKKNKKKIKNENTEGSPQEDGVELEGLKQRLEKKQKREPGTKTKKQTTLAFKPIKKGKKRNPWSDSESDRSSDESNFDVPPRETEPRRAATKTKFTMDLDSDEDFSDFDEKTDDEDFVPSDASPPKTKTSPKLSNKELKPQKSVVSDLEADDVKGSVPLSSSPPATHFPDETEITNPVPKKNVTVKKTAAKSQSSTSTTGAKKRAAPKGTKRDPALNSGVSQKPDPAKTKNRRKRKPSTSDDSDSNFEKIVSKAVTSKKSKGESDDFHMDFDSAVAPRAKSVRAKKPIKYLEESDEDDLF

[1] = system: Doxorubicin treated human iPSC-derived cardiomyocytes; assay: iPSC-CM protection by myricetin analogs (Table 1); type: cell-based; details: for cardioprotection, in words: Table 1
cardiomyocytes = assay: cytotoxicity of myricetin analogs to cardiomyocytes (Table 1, Toxicity); details: for cytotoxicity, in words: at 100 μM where stated; for cytotoxicity, in words / toxic effects at concentrations less than 100 μM: Table 1; for Toxicity: * = cytotoxicity at 100 μM
TOPOIIβ = molecular target: T2, TOPOIIβ (Homo sapiens, UniProt Q02880); assay: kDNA decatenation assay, TOPOIIβ; type: biochemical; details: for TOPOIIβ inhibition, in words: decatenation assay;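 for all read-outs here: kinetoplast DNA incubated with one unit of TOPOIIβ at 37 °C for 30 min, decatenated product resolved on 1% agarose gel, inhibition scored from relative band intensity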
T2 construct: purchased Inspiralis
T2 sequence (Q02880 whole entry): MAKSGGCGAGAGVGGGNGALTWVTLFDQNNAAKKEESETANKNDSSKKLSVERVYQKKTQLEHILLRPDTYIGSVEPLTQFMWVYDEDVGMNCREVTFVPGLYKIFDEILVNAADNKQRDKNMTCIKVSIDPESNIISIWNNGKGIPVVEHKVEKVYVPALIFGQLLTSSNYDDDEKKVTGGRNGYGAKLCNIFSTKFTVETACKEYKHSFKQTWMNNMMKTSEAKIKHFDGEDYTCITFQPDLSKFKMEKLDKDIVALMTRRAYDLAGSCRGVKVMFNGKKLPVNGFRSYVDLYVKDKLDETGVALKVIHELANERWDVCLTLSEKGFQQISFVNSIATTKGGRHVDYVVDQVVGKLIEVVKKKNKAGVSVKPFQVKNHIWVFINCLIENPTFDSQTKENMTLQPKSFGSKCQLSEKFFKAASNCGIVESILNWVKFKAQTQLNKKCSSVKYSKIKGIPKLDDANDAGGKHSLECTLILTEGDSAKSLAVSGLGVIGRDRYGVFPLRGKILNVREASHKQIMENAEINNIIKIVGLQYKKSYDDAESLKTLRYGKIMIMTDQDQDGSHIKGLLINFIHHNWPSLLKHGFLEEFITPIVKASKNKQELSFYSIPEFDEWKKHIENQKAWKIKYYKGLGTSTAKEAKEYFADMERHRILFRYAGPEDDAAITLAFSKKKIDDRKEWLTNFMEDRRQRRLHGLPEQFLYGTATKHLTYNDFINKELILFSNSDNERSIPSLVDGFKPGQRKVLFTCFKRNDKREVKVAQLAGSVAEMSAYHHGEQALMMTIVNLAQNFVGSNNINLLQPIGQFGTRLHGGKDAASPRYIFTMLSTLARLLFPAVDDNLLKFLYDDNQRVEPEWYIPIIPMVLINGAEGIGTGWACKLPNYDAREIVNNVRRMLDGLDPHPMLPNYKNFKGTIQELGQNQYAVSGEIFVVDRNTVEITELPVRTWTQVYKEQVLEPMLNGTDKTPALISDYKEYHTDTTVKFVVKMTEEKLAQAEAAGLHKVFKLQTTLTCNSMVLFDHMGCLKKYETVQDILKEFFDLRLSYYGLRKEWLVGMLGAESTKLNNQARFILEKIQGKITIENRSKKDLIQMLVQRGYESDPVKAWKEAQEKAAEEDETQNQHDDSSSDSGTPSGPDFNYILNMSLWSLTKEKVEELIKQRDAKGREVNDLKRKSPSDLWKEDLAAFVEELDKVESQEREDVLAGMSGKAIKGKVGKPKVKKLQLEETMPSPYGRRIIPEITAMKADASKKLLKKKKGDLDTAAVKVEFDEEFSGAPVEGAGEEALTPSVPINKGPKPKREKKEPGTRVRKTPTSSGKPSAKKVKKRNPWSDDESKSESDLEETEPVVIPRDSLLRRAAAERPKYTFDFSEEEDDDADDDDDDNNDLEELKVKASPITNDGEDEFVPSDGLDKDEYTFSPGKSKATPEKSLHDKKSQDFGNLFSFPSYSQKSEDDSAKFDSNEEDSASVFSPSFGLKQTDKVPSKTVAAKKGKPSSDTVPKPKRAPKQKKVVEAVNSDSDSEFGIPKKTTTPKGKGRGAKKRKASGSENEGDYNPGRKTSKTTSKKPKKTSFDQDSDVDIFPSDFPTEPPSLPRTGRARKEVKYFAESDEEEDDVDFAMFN

[2] = system: cardiomyocytes differentiated from induced pluripotent stem cells; assay: acute toxicity on electrophysiology, MEA beat period and field potential duration (Example 23); type: cell-based; details: at least 20 minutes; for acute drug toxicity on beating: higher concentrations; for difference in beat period or field potential duration vs control samples: lower drug concentration
Experimental: Samples were either mock-treated with 0.1% DMSO, or treated with increasing concentrations of the indicated drug for at least 20 minutes. Cardiomyocytes were treated with the hERG potassium channel blocker E4031 as a control. Following treatment, the beat period and field potential duration (FPD) were measured in each sample using the MEA.

[3] = approximate, read-out: EC50 for cardioprotection
[4] = Homo sapiens, iPSC-CM, read-out: iPSC-CM protection EC50
[5] = Homo sapiens, iPSC-CM, read-out: iPSC-CM protection Max Effect (%)
[6] = Homo sapiens, iPSC-CM, initial screen at 10 μM or 100 μM, read-out: iPSC-CM protection Max Effect (%), class symbol
[7] = read-out: iPSC-CM protection EC50
[8] = initial screen at 10 μM or 100 μM

Row | TOPIIα Inhibition (TOPOIIα) | TOPIIβ Inhibition (TOPOIIβ) | Compound | TOPOIIα inhibition, in words (TOPOIIα) | cardioprotection, in words [1] | TOPOIIβ inhibition, in words (TOPOIIβ) | EC50 [1, 4] [µM] | Emax [1, 5] [%] | Rescue [1] | other results
1 | − | − | O=c1cc(-c2cc(O)c(O)c(O)c2)oc2cc(O)ccc12 [Compound 6, 7,3′4′,5′-tetrahydroxyflavone] | did not inhibit TOPOII enzymes | displayed cardioprotection | did not inhibit TOPOII enzymes | 17.1 | 71 |  | Toxicity (cardiomyocytes): −
2 | − | − | O=c1cc(-c2cc(O)c(O)c(O)c2)oc2ccccc12 [Compound 8, 3′,4′,5′-trihydroxyflavone] |  |  |  | 43 | 64 | + | Toxicity (cardiomyocytes): −
3 | − | − | O=c1cc(-c2ccc(O)c(O)c2)oc2cc(O)cc(O)c12 [Compound 9, 5,7,3′,4′-tetrahydroxyflavone] |  |  |  | 9.67 | 62 |  | 
4 | − | − | O=c1c(O)c(-c2ccc(O)cc2)oc2cc(O)ccc12 [Compound 10, 3,7,4′-trihydroxyflavone] |  |  |  | 3.26 | 27 | + | toxic effects at concentrations less than 100 μM (cardiomyocytes): exhibited toxic effects
5 | − | − | O=c1cc(-c2ccc(O)c(O)c2)oc2cc(O)ccc12 [Compound 11, 7,3′,4′-trihydroxyflavone] |  |  |  | 6.25 | 24 | + | 
6 | − | − | O=c1c(O)c(-c2ccc(O)c(O)c2)oc2ccccc12 [Compound 12, 3,3′,4′-trihydroxyflavone] |  |  |  | 6.43 | 16 | + | 
7 | − | − | COc1cc(-c2oc3cc(O)cc(O)c3c(=O)c2O)cc(O)c1O [Compound 31, 3′-O-methylmyricetin] |  |  |  |  |  | + | iPSC-CM protection Max Effect (%) [1]: 76%; EC50 [1, 7]: 58.7 µM
8 | − | − | COc1c(O)cc(-c2oc3cc(O)cc(O)c3c(=O)c2O)cc1O [Compound 32, 4′-O-methylmyricetin] |  |  |  |  |  | + | iPSC-CM protection Max Effect (%) [1]: 68%; EC50 [1, 7]: 48.6 µM
9 | − | − | COc1cc(-c2oc3cc(O)cc(O)c3c(=O)c2O)cc(OC)c1OC [Compound 34, 3′,4′,5′-O-trimethylmyricetin] |  |  |  |  |  | − | iPSC-CM protection Max Effect (%), class symbol [1, 8]: † (Compounds failed to exhibit >30% protection Max Effect at 10 μM or 100 μM on initial screen.)
10 | − | − | COc1cc(-c2oc3cc(O)ccc3c(=O)c2O)cc(OC)c1OC [Compound 35, 3',4',5'-O-trimethylrobinetin] | entirely failed to display cardioprotection or TOPOII inhibition | entirely failed to display cardioprotection or TOPOII inhibition | entirely failed to display cardioprotection or TOPOII inhibition |  |  | − | iPSC-CM protection Max Effect (%), class symbol [1, 8]: † (Compounds failed to exhibit >30% protection Max Effect at 10 μM or 100 μM on initial screen.)

Further lines, the compound ahead of its results:

Row | Compound | TOPIIα Inhibition (TOPOIIα) | TOPIIβ Inhibition (TOPOIIβ) | TOPOIIα inhibition, in words (TOPOIIα) | cardioprotection, in words [1] | TOPOIIβ inhibition, in words (TOPOIIβ) | EC50 [1, 4] [µM] | Emax [1, 5] [%] | Rescue [1] | other results
11 | O=c1c(O)c(-c2ccccc2)oc2cc(O)cc(O)c12 [3,5,7-trihydroxyflavone] |  |  | neither cardioprotection nor TOPOII inhibition | neither cardioprotection nor TOPOII inhibition | neither cardioprotection nor TOPOII inhibition |  |  |  | cytotoxicity, in words (cardiomyocytes): generalized cytotoxicity
12 | COc1cc(-c2oc3cc(O)cc(O)c3c(=O)c2O)cc(OC)c1O [3′,5′-O-dimethylmyricetin] |  |  | neither cardioprotection nor TOPOIIα and TOPOIIβ inhibition | neither cardioprotection nor TOPOIIα and TOPOIIβ inhibition | neither cardioprotection nor TOPOIIα and TOPOIIβ inhibition |  |  |  | 
13 | COc1cc(-c2oc3cc(O)cc(O)c3c(=O)c2O)cc(O)c1O [3′-O-methylmyricetin] |  |  | failed to inhibit | conferred cardioprotection | failed to inhibit |  |  |  | EC50 [1, 3]: ~59 µM
14 | COc1c(O)cc(-c2oc3cc(O)cc(O)c3c(=O)c2O)cc1O [4′-O-methylmyricetin] |  |  | without TOPOII inhibition | conferred cardioprotection | without TOPOII inhibition |  |  |  | EC50 [1, 3]: ~48.7 µM
15 | COc1ccc2c(=O)c(O)c(-c3cc(OC)c(OC)c(OC)c3)oc2c1 [7,3′,4′,5′-O-tetramethylrobinetin] |  |  | entirely failed to display cardioprotection or TOPOII inhibition | entirely failed to display cardioprotection or TOPOII inhibition | entirely failed to display cardioprotection or TOPOII inhibition |  |  |  | 
16 | O=c1c(O)c(-c2cc(O)c(O)c(O)c2)oc2cc(O)ccc12 [Compound 2, 3,7,3′,4′,5′-pentahydroxyflavone] |  |  | high level of inhibition |  | high level of inhibition | 12.6 | 64 |  | EC50 ([1]; Homo sapiens, Cardiomyocyte, approximate, read-out: EC50 for cardioprotection): 10 to 20 µM; Toxicity (cardiomyocytes): −
17 | O=c1cc(-c2cc(O)c(O)c(O)c2)oc2cc(O)cc(O)c12 [Compound 3, 5,7,3′,4′,5′-pentahydroxyflavone] |  |  | displayed cardioprotection and TOPOII inhibition | displayed cardioprotection | displayed cardioprotection and TOPOII inhibition | 17.2 | 56 |  | toxic effects at concentrations less than 100 μM (cardiomyocytes): some toxic effects; cytotoxicity, in words (cardiomyocytes): low level of cytotoxicity
18 | O=c1c(O)c(-c2ccc(O)c(O)c2)oc2cc(O)cc(O)c12 [Compound 4, 3,5,7,3′,4′-pentahydroxyflavone] |  |  | exhibited TOPOII inhibition | conferred cardioprotection | exhibited TOPOII inhibition | 20.5 | 58 |  | cytotoxicity, in words (cardiomyocytes): high level of general cytoxicity
19 | O=c1ccoc2cc(O)ccc12 [Compound 7-hydroxy-4-chromone, 7-hydroxy-4-chromone] |  |  | Nor did either compound confer TOPOIIβ or a inhibition | no positive effect | Nor did either compound confer TOPOIIβ or a inhibition |  |  |  | cytotoxicity, in words (cardiomyocytes): high level of cytotoxicity
20 | O=c1ccoc2ccccc12 [Compound 29, chromone] |  |  |  |  |  |  |  | − | Emax [1, 6]: < 30%; Toxicity (cardiomyocytes): −
21 | COc1cc(-c2oc3cc(O)cc(O)c3c(=O)c2O)cc(OC)c1O [Compound 33, 3′,5′-O-dimethylmyricetin] | − | − |  |  |  |  |  | − | iPSC-CM protection Max Effect (%), class symbol [1, 8]: † (Compounds failed to exhibit >30% protection Max Effect at 10 μM or 100 μM on initial screen.)
22 | COc1ccc2c(=O)c(O)c(-c3cc(OC)c(OC)c(OC)c3)oc2c1 [Compound 36, 7,3′,4′,5′-O-tetramethylrobinetin] | − | − |  |  |  |  |  | − | iPSC-CM protection Max Effect (%), class symbol [1, 8]: † (Compounds failed to exhibit >30% protection Max Effect at 10 μM or 100 μM on initial screen.)
23 | COc1ccc2c(=O)c(OC)c(-c3cc(OC)c(OC)c(OC)c3)oc2c1 [Compound 37, 3,7,3′,4′,5′-O-pentamethylrobinetin] | − | − |  |  |  |  |  | − | iPSC-CM protection Max Effect (%), class symbol [1, 8]: † (Compounds failed to exhibit >30% protection Max Effect at 10 μM or 100 μM on initial screen.)
24 | O=c1ccoc2cc(O)ccc12 [Compound 38, 7-hydroxy-4-chromone] | − | − |  |  |  |  |  | − | Emax [1, 6]: < 30%
25 | C[C@H](CCC(=O)O)[C@H]1CC[C@H]2[C@@H]3[C@H](O)C[C@@H]4C[C@H](O)CC[C@]4(C)[C@H]3CC[C@]12C [chenodeoxycholic acid] |  |  |  |  |  |  |  |  | acute drug toxicity on beating [2]: beating cessation; difference in beat period or field potential duration vs control samples [2]: no appreciable difference
26 | O=c1ccoc2ccccc12 [chromone] |  |  | Nor did either compound confer TOPOIIβ or a inhibition | no positive effect | Nor did either compound confer TOPOIIβ or a inhibition |  |  |  | 
27 | CC(=O)N(O)CCCCCNC(=O)CCC(=O)N(O)CCCCCNC(=O)CCC(=O)N(O)CCCCCN [deferoxamine] |  |  |  |  |  |  |  |  | difference in beat period or field potential duration vs control samples [2]: no appreciable difference
28 | O=C1C[C@@H](c2ccc(O)cc2)Oc2cc(O)cc(O)c21 [naringenin] |  |  |  |  |  |  |  |  | acute drug toxicity on beating [2]: beating cessation; difference in beat period or field potential duration vs control samples [2]: no appreciable difference
